The text below walks through data of article PMC12030043, “Preparation and Therapeutic Evaluation of Engineered Semaglutide and Statin–Lipid Conjugate-Based Nanoparticle” (Pharmaceutics, 2025).

Data set [1] can be described thus: Particle size by dynamic light scattering (DLS) in aqueous solution. Type of data set: physicochemical. As to conditions: 1 mL distilled water containing 5% DMSO, semaglutide fixed at 0.1 mg, semaglutide alone 0.1 mg/mL, RLC alone 1 mg/mL, mean ± S.D., n = 3. The procedure:
To determine the optimal formulation and final composition of the semaglutide–RLC nanoparticles (SRLC NPs), a precipitation evaluation experiment was conducted using various mass ratios (1:10, 1:20, 1:30, w/w) of semaglutide to RLC. Based on stability and particle size analysis, the 1:10 ratio was selected as the optimal formulation, and this ratio was maintained in the final product composition to ensure consistency in therapeutic efficacy and physicochemical properties. The resulting mixture was used immediately without undergoing a separate freeze-drying process. For nanoparticle preparation, semaglutide ([…]) was dissolved in 1 mL of DW, while RLC ([…]) was dissolved in 1 mL of DMSO. […] The stability of each formulation was assessed by measuring particle size at multiple time points (0, 0.5, 1, 2, 3, 4, and 5 days) using dynamic light scattering (DLS; Zetasizer Nano, Malvern Instruments, Worcestershire, UK). The zeta potential of both RLC alone and the semaglutide–RLC (1:10) formulation was also measured to evaluate the surface charge and colloidal stability of the nanoparticles. Additionally, in vivo stability was evaluated by preparing 1 mL of Dulbecco’s phosphate-buffered saline (DPBS) containing 10% fetal bovine serum (FBS) and 5% DMSO, followed by particle size measurements at different time points (0, 0.5, 1, and 2 days). […]

The test system of the next data set is fibroblast cells. Description: Cytotoxicity assay in fibroblast cells (EZ-Cytox). Type of data set: cell-based. As to conditions: 100 µg/mL, 24 h, absorbance 450 nm/600 nm, relative to untreated control, mean ± S.D., n = 5. The procedure: The cytotoxicity of the RLC and SRLC nanoparticles was evaluated using fibroblast cells obtained from the Korean Cell Line Bank (Seoul, Republic of Korea). The fibroblast cells were cultured in high-glucose Dulbecco’s modified Eagle’s medium (DMEM) supplemented with 10% (v/v) fetal bovine serum (FBS) and 1% antibiotic–antimycotic solution. The cells were then seeded into a 96-well culture plate at a density of 1.0 × 10^4 cells per well and incubated for 1 h at 37 °C in a humidified atmosphere containing 5% CO2 to allow stabilization. Following stabilization, the cells were treated with RLC and SRLC nanoparticles at concentrations ranging from 0.1 to 100 […] for 24 h. Cell viability (n = 5) was evaluated using the EZ-Cytox cell viability assay kit, with absorbance readings taken at 450 nm and 600 nm using a microplate reader (SPECTROstar Nano, BMG LABTECH, Ortenberg, Germany). The viability of the treated cells was determined by comparing the UV absorbance values of the samples to those of the untreated control group.
To evaluate the cytotoxic effects of SRLC NPs, a cytotoxicity assay was performed using fibroblast cells at concentrations ranging from 0.1 to 100 µg/mL (Figure 6A).

In data set [2] the test system is high-fat diet (HFD)-fed mouse model. The data set is described as follows: Oral glucose tolerance test (OGTT) in HFD-fed mice. Type of data set: in vivo, C57BL/6 mice. The note with it: day 64, 19 h fasting, oral glucose 2 g/kg, 0-180 min, glucometer, n = 3; RO 0.5 mg/kg, RLC 1 mg/kg, SRLC NPs 1.1 mg/kg s.c. The procedure:
All animal experiments were conducted under the standard regulations of the Institutional Animal Care and Use Committee (IACUC) at Konkuk University (ref. no. KU22078-1). The animals were housed in a controlled environment with regulated temperature and humidity, maintained under a 12 h light–dark cycle. Obesity was induced in 5-week-old male C57BL/6 mice through dietary control for 69 days. A total of 25 mice were used and divided into five experimental groups: negative control (regular diet, RD), positive control (high-fat diet, HFD), RO (0.5 mg/kg), RLC (1 mg/kg), and SRLC NPs (1.1 mg/kg). The RO dose was set at half that of RLC due to its molecular weight being approximately twice that of RLC, ensuring equivalent molar exposure. Additionally, the SRLC NP dose was adjusted to 1.1 mg/kg as it comprised 1 mg of RLC and 0.1 mg of semaglutide, allowing for the accurate comparison of therapeutic effects. While the RD group received a normal diet, the other groups were fed a high-fat diet (HFD) consisting of 60 kcal% fat (D12492, Research Diets, New Brunswick, NJ, USA). The body weights of the mice were measured weekly. Starting from day 28 of the dietary intervention, each group received their respective substances via subcutaneous injection every three days. […] Blood glucose levels were then measured at time intervals of 0, 15, 30, 60, 90, 120, and 180 min (n = 3).

For `CC(C)c1nc(N(C)S(C)(=O)=O)nc(-c2ccc(F)cc2)c1C=CC(O)CC(O)CC(=O)NCCNC(=O)CCC(C)C1CCC2C3C(O)CC4CC(O)CCC4(C)C3CCC12C` (stereo not drawn) [RLC], the particle size in data set [1] is listed as 613.30 ± 26.86 nm. For the same molecule, the cell viability (in general, a read-out of living cells in per cent, often relative to untreated cells) in the data set with fibroblast cells is given as 85.60 ± 2.87%. For the same molecule, in data set [2], the “blood glucose response in OGTT (in words)” value is “sharp increase in blood glucose levels immediately after administration, followed by a gradual decline”.
